# Reference: ChEMBL document CHEMBL4715874, “In Vivo Screening of Xanthones from Garcinia oligantha Identified Oliganthin H as a Novel Natural Inhibitor of Convulsions” (J Nat Prod, 2020)
# Calls of active or inactive are those of the source. The calls are words filed in the database; no cut-off is given here.
# Experiments:
# [1] = Toxicity in AB zebra fish larvae assessed as mortality at >= 25 uM after 6 hrs; set-up: species or system Danio rerio; conditions: zebrafish
# [2] = Neurotoxicity in AB zebra fish larvae at 25 uM after 6 hrs; format: toxicity, Danio rerio; conditions: zebrafish
# [3] = species on record: Danio rerio; assay: Anticonvulsant activity in AB zebra fish larvae assessed as reduction in PTZ-induced convulsant behavior by measuring swimming distance at 3.1 to 12.5 uM pretreated for 6 hrs followed by PTZ-stimulation and measured every 5 mins for 1 hr; format: functional, organism-based; conditions: dose 3.1-12.5 µM, time 7.0 hrs
# [4] = Toxicity in AB zebra fish larvae assessed as maximum tolerated concentration after 6 hrs; set-up: species or system Danio rerio; conditions: zebrafish, read-out: MTC
# [5] = Ratio of MTC for toxicity in AB zebra fish larvae to lowest observed effect concentration for Anticonvulsant activity in AB zebra fish larvae assessed as reduction in PTZ-induced convulsant behavior; set-up: species or system Danio rerio
# [6] = species on record: Danio rerio; assay: Anticonvulsant activity in AB zebra fish larvae assessed as reduction in PTZ-induced convulsant behavior by measuring lowest observed effect concentration pretreated for 6 hrs followed by PTZ-stimulation and measured every 5 mins for 1 hr; format: functional; conditions: time 7 hrs
# [7] = Neurotoxicity in AB zebra fish larvae assessed as increase in total swimming distance at > 12.5 uM after 6 hrs; format: toxicity, Danio rerio; conditions: zebrafish
# [8] = Neurotoxicity in AB zebra fish larvae assessed as decrease in total swimming distance at <= MTC after 6 hrs; format: toxicity, Danio rerio; conditions: zebrafish
smiles,measurement,setting,value
CC(C)=CCC1(CC=C(C)C)C(=O)C(O)=C(O)c2oc3c4c(cc(O)c3c(=O)c21)OC(C)(C)C=C4,Activity,[1],Toxic
same,Activity,[2],Toxic
same,Activity,[3],inactive
same,MNTC at 6 h,[4],12.5 µM
same,Ratio,[5],<1
same,Activity,[6],>12.5 µM
same,Activity,[7],Toxic
same,Activity,[8],Non-Toxic
